Results reported in a melting point compilation (Tetko et al.; mined from patent text by program, amines drawn as free bases though some values may be those of a salt).

Which melting point does the source give for `CS(=O)(=O)c1ccc(-c2cnn(-c3ccc(F)c(F)c3)c(=O)c2-c2cccc(F)c2)cc1` here?
The melting point was 182 to 185 °C.

Which melting point does the source give for `Cc1ccc(C(=O)Oc2c(N3CCCC3)c(=O)n(-c3ccccc3)c3ncccc23)cc1` here?
The melting point was 216 to 217 °C.

With `CCOC(=O)c1ccc(CCCOCCCCCCNCC(O)c2cc(Cl)c(N)c(Cl)c2)cc1` (stereo not drawn) as the compound, how does the melting point read?
Its melting point is 66 to 68 °C.

Which melting point does the source give for `CC(=O)C1Cc2c(nc3ccccc3c2C)C(N2CCOCC2)CN1` (stereo not drawn) here?
Its melting point is 179 °C.

With `O=S(=O)(CC1CC=CCO1)c1ccc(Oc2ccc(OC(F)(F)F)cc2)cc1` (stereo not drawn) as the compound, how does the melting point read?
The melting point was 62 to 72 °C.

For `CCC(C)n1cc(Cl)nc(N2CCc3cc(OC)cc(Cl)c32)c1=O` (stereo not drawn), which melting point is on record?
Its melting point is 143 to 145 °C.

With `NCC(C(=O)O)c1c[nH]c2cc(Cl)ccc12` (stereo not drawn) as the compound, how does the melting point read?
The melting point was 245 to 247 °C.

Which melting point does the source give for `Cc1oc(-c2ccccc2)nc1CCc1ccc(COc2ccccc2CC(=O)O)cc1` here?
Its melting point is 130 to 131 °C.

For `O=Cc1cc2cc(Cl)ccc2nc1Cl`, which melting point is on record?
The melting point was 188 to 190 °C.

With `O=C(N[C@@H](CN1CCC(=C2c3ccccc3C=Cc3ccccc32)CC1)C(=O)O)OCc1ccccc1` as the compound, how does the melting point read?
The melting point was 178 to 179 °C.

Which melting point does the source give for `CC(C)(C)OC(=O)Nc1ccnc(NC(=O)NCc2ccccn2)c1` here?
Its melting point is 192 to 193 °C.

Which melting point does the source give for `CCN(c1cc2c3c(c1)CCCC3CCC2)c1ncc(C(=O)O)cn1` here?
Its melting point is 252 to 253 °C.

With `CC(C)n1c(=O)c(=O)[nH]c2ccccc21` as the compound, how does the melting point read?
The melting point was 227 to 228 °C.

Which melting point does the source give for `CNc1c(NCCSCc2[nH]cnc2C)c(=O)c1=O` here?
The melting point was 208 °C.

Which melting point does the source give for `CCn1c(Nc2cc(Cl)ccc2Cl)nc(C(F)(F)F)cc1=O` here?
The melting point was 167 to 168 °C.

With `CC(C)n1c(NC(=O)c2ccccc2)nc2ccccc2c1=O` as the compound, how does the melting point read?
Its melting point is 156 to 158 °C.

With `O=C(C1CC1)N1CCN(C(=O)c2cc(C(F)(F)F)cc(C(F)(F)F)c2)[C@H](Cc2c[nH]c3ccccc23)C1` as the compound, how does the melting point read?
The melting point was 109 to 114 °C.

With `CCCCCC[C@H](F)CO` as the compound, how does the melting point read?
The melting point was 33 to 35 °C.

Which melting point does the source give for `O=c1[nH]c2ncc(-c3ccc(O)cc3)nc2n1CC1CCCCC1` here?
Its melting point is 302 to 303 °C.

Which melting point does the source give for `CC(O)CCNc1cc(C(=O)O)cc(S(N)(=O)=O)c1Oc1ccccc1` (stereo not drawn) here?
Its melting point is 245 to 247 °C.

For `CNC(=O)N1CC(Oc2ccc(C(F)(F)F)cc2Cl)C1`, which melting point is on record?
Its melting point is 160 to 161 °C.

For `O=C(O)CNc1nccc(-c2nc(=O)c3ccccc3s2)n1`, which melting point is on record?
Its melting point is 283 to 284 °C.

Which melting point does the source give for `C=CCCCn1ncc2c(N)c(C(=O)OCC=C)c(C)nc21` here?
Its melting point is 62 to 62.5 °C.

Which melting point does the source give for `O=C(O)c1cc(Cl)c(-n2ccc(C(F)(F)F)cc2=O)c(Cl)c1` here?
The melting point was 259 to 260 °C.

For `Cc1cccc2c1CCC2=NNC(=N)N`, which melting point is on record?
Its melting point is > 300 °C.

Which melting point does the source give for `Nc1nc(N)nc(-c2cccc(-n3cccc3)c2)n1` here?
Its melting point is 164 to 170 °C.

Which melting point does the source give for `COc1ccc(-n2cncc2-c2ccccc2)cc1` here?
Its melting point is 106 °C.

Which melting point does the source give for `CN(C)CCOc1ccc(C=O)c(O)c1` here?
The melting point was 82 to 83 °C.

For `CC(C)(C)OC(=O)CCc1csc(CCNc2nc(N)c3ncn(C4OC(CO)C(O)C4O)c3n2)c1` (stereo not drawn), which melting point is on record?
Its melting point is 120 to 124 °C.

Which melting point does the source give for `COc1ccc2c(c1)Sc1cc(OC(C)=O)c3ccccc3c1N2` here?
Its melting point is 156 to 158 °C.

With `O=Cc1c[nH]c2c1ccc1c3cc(-c4ccc(F)cc4)ccc3[nH]c12` as the compound, how does the melting point read?
The melting point was > 250 °C.

With `COc1ccc(CN(C)CCCCc2ccc(NC(=O)c3cccc4c(=O)cc(-c5ccccc5)[nH]c34)cc2)cc1OC` as the compound, how does the melting point read?
Its melting point is 171 °C.

With `CC(=O)c1cc2c(s1)C(=O)c1c(C(C)=O)csc1C2=O` as the compound, how does the melting point read?
Its melting point is 207 to 208 °C.

Which melting point does the source give for `CNc1ccc(-c2cc[nH]n2)cc1` here?
Its melting point is 78 to 86 °C.

With `Cc1ccc(C2COc3c(C)c(C)c(NC(=O)CC(C)(C)C)c(C)c32)cc1` (stereo not drawn) as the compound, how does the melting point read?
The melting point was 176 to 177 °C.

Which melting point does the source give for `Cc1c(F)cc(C(C)(C)C)c(O)c1-c1nc2cc(S(=O)(=O)C(F)(F)F)ccc2[nH]1` here?
Its melting point is 245 to 247 °C.

With `Cc1cc(Cl)cc(C(=O)Nc2nc(C)cs2)n1` as the compound, how does the melting point read?
Its melting point is 176 °C.

Which melting point does the source give for `O=Cc1nc2cnccc2s1` here?
The melting point was 96.5 to 98 °C.

With `Cc1cc(S(=O)(=O)N(CC(N)=O)c2ccc(Cl)cc2Cc2cc(F)ccc2F)c(C)cc1Cl` as the compound, how does the melting point read?
Its melting point is 170 °C.

Which melting point does the source give for `O=C(CN1C(=O)CNC1=O)OCc1ccccc1` here?
Its melting point is 142 to 144 °C.

Which melting point does the source give for `CC(C)Nc1cccnc1N1CCN(C(=O)c2ccc(C(=O)O)cc2)CC1` here?
Its melting point is 215 to 217 °C.

With `CC(C)(C)OC(=O)N[C@@H](CC1CCCCC1)[C@@H](O)[C@@H](O)C1CC1` as the compound, how does the melting point read?
The melting point was 83 to 85 °C.

Which melting point does the source give for `Cc1ccc(C(=O)C(C#N)C#N)cc1` here?
The melting point was 163 °C.

With `NOCC=Cc1ccc(Br)cc1` as the compound, how does the melting point read?
Its melting point is 35 to 38 °C.

Which melting point does the source give for `COc1cc2c3c(c1)nc(SCc1ccncc1)n3CCC2` here?
Its melting point is 99 to 101 °C.

Which melting point does the source give for `CCOCCC(=Nc1ccc(Cl)cc1C(F)(F)F)n1ccnc1` here?
The melting point was 61 to 62 °C.

For `CCOC(=O)c1cn(CC)c2nc(N3CCN(C(=O)OCC)CC3)c(F)cc2c1=O`, which melting point is on record?
The melting point was 171 to 173 °C.

For `c1ccc(Nc2ccnc3cn[nH]c23)cc1`, which melting point is on record?
Its melting point is 222 to 224 °C.

With `COC(=O)Cc1c(C)ncnc1Oc1cccc(-c2ccccc2)c1` as the compound, how does the melting point read?
The melting point was 113 to 115 °C.

Which melting point does the source give for `O=c1cc2c(nn1-c1ccc(Cl)cc1)-c1ncccc1CC2` here?
Its melting point is 174 to 176 °C.

With `COc1ccc(C2CCN(c3c(C)c(C)c4c(c3C)C(O)(c3ccsc3)C(C)(C)O4)CC2)cc1OC` (stereo not drawn) as the compound, how does the melting point read?
The melting point was 125 to 128 °C.

Which melting point does the source give for `CC(C)COc1c(-c2ccc(S(N)(=O)=O)cc2)cnn(CC(F)(F)F)c1=O` here?
The melting point was 170 to 172 °C.

For `CCC(C)NC1=NS(=O)(=O)c2cc([N+](=O)[O-])ccc2N1` (stereo not drawn), which melting point is on record?
The melting point was 287 to 288 °C.

Which melting point does the source give for `Cc1c(C(=O)NCc2ccc3c(Br)c(OCC#N)ccc3c2)oc2ccccc12` here?
The melting point was 194 to 197 °C.

With `CCOc1ccc(-c2nc(-c3cc(C(=O)OC)c4oc(C)cc4c3)cs2)cc1OCC` as the compound, how does the melting point read?
The melting point was 144 to 145 °C.

Which melting point does the source give for `O=C1N[C@@H](c2ccccc2)[C@H]1O` here?
Its melting point is 175 to 180 °C.

Which melting point does the source give for `CCOC(=O)C(C)Oc1ccc2ccc(Oc3cc(-n4c(=O)cc(C(F)(F)F)n(C)c4=O)c(F)cc3C#N)cc2c1` (stereo not drawn) here?
Its melting point is 133 °C.

Which melting point does the source give for `COc1cc2nc(SCc3ncc(C)c(N(C)C)c3Cl)[nH]c2cc1OC` here?
Its melting point is 120 to 122 °C.

For `Cc1c(NC(=O)c2ccc(-c3ccc(F)cc3)cc2)ccc2cc(CN3CCN(C)CC3)cnc12`, which melting point is on record?
The melting point was 152 to 153 °C.

For `CC(=O)OCCOCn1ccc2c(Cl)ncnc21`, which melting point is on record?
Its melting point is 67 to 88 °C.

Which melting point does the source give for `CCCCCCCCCCCCCCCCCCNC(=O)OCC1(CNS(=O)(=O)CCCI)CCCO1` (stereo not drawn) here?
The melting point was 66.5 to 67.5 °C.

With `CCOc1ccc(C=Nc2ccc(S(=O)(=O)NC(C)(C)C)cc2)cc1` as the compound, how does the melting point read?
Its melting point is 188 °C.

With `O=C1NCN2CCC1CC2` as the compound, how does the melting point read?
The melting point was 125 to 126 °C.

Which melting point does the source give for `CC(C)(C)c1cc(C(C)(C)C)c(N)cc1N` here?
The melting point was 153 to 154 °C.

With `COc1ccc2c(c1)CCC1C3CC4OCCOC4C3(C)CCC21C` (stereo not drawn) as the compound, how does the melting point read?
The melting point was 115 °C.

With `C=CCOc1ccccc1OCC(O)CNC(C)C` (stereo not drawn) as the compound, how does the melting point read?
The melting point was 76 to 79 °C.

For `COc1cc(OC)nc(NC(=O)NS(=O)(=O)Oc2ccccc2-c2csnn2)n1`, which melting point is on record?
The melting point was 173 to 175 °C.

With `COC(=O)CC[C@H]1CC[C@@H](NC(=O)N(NC(C)=O)c2ccc(C#N)cc2)CC1` as the compound, how does the melting point read?
Its melting point is 132 to 134 °C.

With `Cc1ccc(S(=O)(=O)NCCc2cccc(OCCN)c2)cc1` as the compound, how does the melting point read?
Its melting point is 128 to 130 °C.

With `CC1(C)CC(=O)Oc2ccc(O)cc21` as the compound, how does the melting point read?
Its melting point is 95 to 96 °C.

Which melting point does the source give for `CCCCCCCCCCCCCCCCCCOc1cc(N)cc(C(=O)N(CC(=O)O)CC(=O)O)c1` here?
Its melting point is 108 to 120 °C.

For `Cc1cccc(-c2n[nH]cc2-c2ccc(F)c(-c3ccc(CN4CCOCC4)cn3)c2)n1`, which melting point is on record?
Its melting point is 68 to 70 °C.

With `Cc1ccc(C(=C/C=C/C=O)c2ccc(C)cc2)cc1` as the compound, how does the melting point read?
Its melting point is 92 to 93 °C.
